Reference: patent US8835425B2, “Use of selective GABA A α5 negative allosteric modulators for the treatment of central nervous system conditions” (Hoffmann-La Roche Inc., priority 2010, dated 2014)

Key:
Ts65Dn and control mice [1] = assay: Open field; assay type: in vivo; details: mice of either genotype; for horizontal or vertical activity in open field: 20 mg/kg p.o. chronic; for anxiogenic effect (activity in the center of the open field): chronic administration
Method: (§1) For mice studies, active pharmaceutical compounds of present invention were formulated in chocolate-milk (Puleva, Barcelona, Spain). Active pharmaceutical compounds of present invention or vehicle were administered p.o. at a dose of 20 mg/kg for six weeks. Their administration was prolonged during the 30 days of the behavioral assessment.
Exploratory behavior and anxiety were assessed using a square-shaped open field (55 cm×55 cm, surrounded by a 25-cm-tall fence), divided into 25 equal squares. The animals were placed in the center of the field, and the number of vertical (rearing) activities and horizontal crossings (from square to square, subdivided into center vs. peripheral crossings) were scored in a single 5-min trial.

Ts65Dn and control mice [2] = assay: Spontaneous activity: actimetry; assay type: in vivo; details: 20 mg/kg p.o. chronic, vs vehicle
Method: as §1
In this test the circadian variation of the animals' spontaneous locomotor activity during a complete light-dark cycle of 24 hours was evaluated. The apparatus is a device (Acti-system II, Panlab, Barcelona) that detects the changes produced in a magnetic field by the movement of the mice. It registers the movements of animals during a continuous 24 hour cycle (12 hours of light and 12 hours of darkness).

human GABA A α3β3γ2 = human GABA A α3β3γ2 (Homo sapiens, UniProt P18507+P34903); assay: Two-microelectrode voltage clamp, modulation of GABA EC10 response in Xenopus oocytes, α3β3γ2; assay type: cell-based; parameters: expressed in transfected cells; host or cells: Xenopus laevis oocytes; details: % change of EC10 GABA response at 3 μM or at 30×Ki if Ki below 0.1 μM
human GABA A α3β3γ2, sequence (P34903 29-492): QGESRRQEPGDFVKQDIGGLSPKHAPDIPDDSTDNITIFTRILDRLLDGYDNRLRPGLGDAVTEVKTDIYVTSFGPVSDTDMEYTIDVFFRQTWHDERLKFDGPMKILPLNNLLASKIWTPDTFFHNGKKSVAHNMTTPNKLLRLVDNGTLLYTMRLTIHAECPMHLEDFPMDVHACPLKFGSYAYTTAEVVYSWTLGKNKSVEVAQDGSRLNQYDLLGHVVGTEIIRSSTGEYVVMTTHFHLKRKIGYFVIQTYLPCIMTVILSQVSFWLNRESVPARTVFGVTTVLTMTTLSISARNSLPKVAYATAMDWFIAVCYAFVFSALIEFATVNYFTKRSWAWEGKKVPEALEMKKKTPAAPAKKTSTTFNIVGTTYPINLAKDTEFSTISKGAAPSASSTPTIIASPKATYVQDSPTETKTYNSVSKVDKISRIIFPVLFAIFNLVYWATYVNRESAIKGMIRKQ
human GABA A α3β3γ2, sequence (P28472 26-473 partner): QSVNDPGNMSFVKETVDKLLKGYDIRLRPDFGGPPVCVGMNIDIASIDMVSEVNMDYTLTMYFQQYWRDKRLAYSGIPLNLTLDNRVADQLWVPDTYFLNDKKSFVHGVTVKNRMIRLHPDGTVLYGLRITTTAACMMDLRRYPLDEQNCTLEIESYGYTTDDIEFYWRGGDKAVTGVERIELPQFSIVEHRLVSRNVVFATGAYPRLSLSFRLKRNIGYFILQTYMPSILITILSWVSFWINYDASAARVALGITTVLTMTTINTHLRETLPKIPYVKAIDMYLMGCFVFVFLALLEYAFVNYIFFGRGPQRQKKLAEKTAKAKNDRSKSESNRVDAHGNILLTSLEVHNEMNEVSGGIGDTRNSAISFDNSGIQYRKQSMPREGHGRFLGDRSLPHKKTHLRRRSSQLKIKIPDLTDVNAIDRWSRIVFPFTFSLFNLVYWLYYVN
human GABA A α3β3γ2, sequence (P18507 40-475): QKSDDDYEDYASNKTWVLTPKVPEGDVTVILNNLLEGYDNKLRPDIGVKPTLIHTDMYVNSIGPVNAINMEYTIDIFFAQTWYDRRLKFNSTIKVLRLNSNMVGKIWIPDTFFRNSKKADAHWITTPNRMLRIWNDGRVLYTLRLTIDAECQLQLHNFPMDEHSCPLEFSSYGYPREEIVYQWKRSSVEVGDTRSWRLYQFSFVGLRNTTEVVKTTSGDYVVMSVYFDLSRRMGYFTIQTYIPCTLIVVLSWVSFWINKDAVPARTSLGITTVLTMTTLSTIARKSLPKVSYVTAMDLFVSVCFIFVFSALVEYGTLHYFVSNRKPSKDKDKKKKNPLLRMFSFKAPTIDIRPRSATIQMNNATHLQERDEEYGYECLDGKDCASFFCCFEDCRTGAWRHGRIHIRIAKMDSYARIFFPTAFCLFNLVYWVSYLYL
Method: Table 2b. […] Effect at human GABA A α5 receptors: % change of a submaximal (EC10) response to GABA determined at 30×Ki value from the flumazenil binding assay.
Subtype-selective effects were determined on cloned receptors expressed in Xenopus oocytes. Human recombinant GABA A receptors were expressed in Xenopus laevis oocytes. Current responses were evoked in two-microelectrode voltage-clamp condition by applying an EC10 of GABA before and during the co-application of the test compound. Response amplitudes in the presence of the test compound are expressed as percentage of the amplitudes before drug addition.

[3] = system: hippocampus of TS and CO mice; assay: Hippocampal neurogenesis, granule cell density and GAD+ boutons after chronic treatment; assay type: in vivo
Source text: Alterations in hippocampal morphology such as reductions in granule cell density and hippocampal neurogenesis have also been implicated in the learning deficits shown by Ts65Dn mice. Spatial learning is known to depend on the functional integrity of the hippocampus, a structure that plays a key role in information encoding and retrieving in the CNS. […] Also, neuronal survival of the cells that have undergone maturation was also normalized in TS mice, as shown by the increase in DAPI+ cells found in TS mice after chronic 8581 administration (p=0.026; FIG. 14).

Nf1+/− mice = assay: Spatial learning of Nf1+/− mice in the Morris water maze; assay type: in vivo
Method: 1 week after handling, mice were trained with two consecutive trials per day for 8-9 days 30 minutes after i.p. injection of 8581 or vehicle. In each trial, mice were given 60 s to find the platform. After each trial, mice were put on the platform for 15 s. On the day of probe trial (Day 3, Day 5, Day 7, and Day 9) 60 s of probe trial was performed after training. […] Two different measures of spatial learning (% search in quadrant (FIG. 16) and average proximity to the target platform (FIG. 17)) show similarly, that active pharmaceutical compounds used in present invention rescue spatial learning deficits of Nf1+/− mice (CO/veh (n=10), Nf1/veh (n=9), CO/8581 (n=10), and Nf1/8581 (n=11).
Effects of active pharmaceutical compounds used in present invention on the performance of Nf1+/− mice were tested under conditions in which the spatial learning of the mutants was indistinguishable from controls (less extinction due to lower number of probe trials). Mean percentage of time spent in each quadrant during a probe trial in plotted in FIG. 18. Average proximity to the target quadrant is plotted in FIG. 19. […] On probe trial 1 and 2 (days 5 and 7), all groups searched selectively in the target quadrant (p<0.01), and there were no differences between groups.

Control mice (B16;129F1) = assay: Contextual fear conditioning; assay type: in vivo
Method: Control mice (B16;129F1) were trained with a contextual fear-conditioning protocol using either one trial per day for one day (FIG. 20) or two consecutive days (FIG. 21). On the training day, 30 minutes after i.p. injection of 8581 or vehicle, mice were placed in training chamber. A foot shock (1 s, 0.4 mA) was delivered 40 s after placement. Conditioned response (percentage freezing time of the mice) was recorded 24 h after training by using automated procedures. Average freezing levels during the first 30 s of each training day and 24 hr after the last training trial were plotted.

[4] = system: Nf1+/− mice and control mice (B16;129F1); assay: Rotarod, accelerating speeds, Nf1+/− and control mice; assay type: in vivo; details: Nf1+/− mutant or control mice, 1 mg/kg i.p.
Method: Control mice (B16;129F1) and Nf1+/− mice were treated with vehicle or with 8581 (n=10 for each of the 4 groups). 30 minutes after i.p. injection of 8581 (1 mg/kg) or vehicle, mice were tested with a rotarod protocol using accelerating speeds (4-40 rpm, maximal duration 300 s) for four trials with 30 min intertrial interval. FIG. 22 visualizes performance of control mice in the Rotarod and FIG. 23 illustrates the performance of Nf1+/− mice in the Rotarod.

[5] = 8581 concentration in serum after i.p. injection; assay type: in vivo, mice; details: ip; for concentration at 0.5 h: 0.5 h after i.p. injection; for concentration at 3 h: 3 h after i.p. injection; for concentration at 7 h: 7 h after i.p. injection; for concentration at 24 h: 24 h after i.p. injection
Method: Table 5. 8581 concentration in serum (ng/ml) of Nf1+/− and control mice 0.5, 3, 7, and 24 hours after i.p. injection

[6] = TS mice, chronic administration
[7] = B16;129F1, mouse, 0.1 mg/kg, control mice
[8] = B16;129F1, mouse, 1 mg/kg, control mice

Cc1onc(-c2ccc(F)cc2)c1COc1ccc(C(=O)N2CCS(=O)(=O)CC2)cn1 [Compound R1, (1,1-Dioxo-1,6-thiomorpholin-4-yl)-{6-[3-(4-fluoro-phenyl)-5-methyl-isoxazol-4-ylmethoxy]-pyridin-3-yl}-methanone]
horizontal or vertical activity in open field (Ts65Dn and control mice [1]): did not significantly affect | anxiogenic effect (activity in the center of the open field) (Ts65Dn and control mice [1]): did not produce an anxiogenic effect | spontaneous activity in home cage, dark or light phase (Ts65Dn and control mice [2]): did not differ in the amount of spontaneous activity | Efficacy GABA A α3β3γ2 (human GABA A α3β3γ2): −2%

FC(F)c1ncn2c1Cn1ncnc1-c1cc(Br)ccc1-2 [Compound 8581, 3-Bromo-10-difluoromethyl-9H-imidazo[1,5-a][1,2,4]triazolo[1,5-d][1,4]benzodiazepine]
number of GABAergic synapses (GAD+) in CO mice ([3]; CO mice, chronic treatment): non-significant tendency to increase | density of proliferating (Ki67+) cells in hippocampus [3, 6]: completely restored the density of proliferating cells | neuronal survival (DAPI+ cells, granular cell layer) [3, 6]: normalized | number of GAD positive boutons in hippocampus ([3]; TS mice, chronic treatment): decreased dramatically | performance of Nf1+/− mice under conditions that occlude their behavioral deficits (Nf1+/− mice; 1 mg/kg): does not affect the performance | spatial learning deficits of Nf1+/− mice (Nf1+/− mice; Nf1+/− mice, 1 mg/kg i.p. 30 minutes before training, probe trials): rescued the spatial learning deficits | horizontal or vertical activity in open field (Ts65Dn and control mice [1]): did not significantly affect | anxiogenic effect (activity in the center of the open field) (Ts65Dn and control mice [1]): did not produce an anxiogenic effect | spontaneous activity in home cage, dark or light phase (Ts65Dn and control mice [2]): did not differ in the amount of spontaneous activity | contextual conditioning, training for two consecutive days (Control mice (B16;129F1); control mice, 1 mg/kg i.p.): significant increase in contextual conditioning | freezing at 24 hr after training (Control mice (B16;129F1); control mice, 3 mg/kg i.p., one training day): significantly enhanced freezing | contextual fear conditioning dose response curve (Control mice (B16;129F1); control mice, 0.3, 1.0 and 3.0 mg/kg): dose-dependent increase in contextual fear conditioning | performance in rotarod [4]: did not affect the performance | Efficacy GABA A α3β3γ2 (human GABA A α3β3γ2): −1% | concentration at 0.5 h [5, 7]: 9.45 ± 3.05 ng/mL | concentration at 0.5 h [5, 8]: 271 ± 1 ng/mL | concentration at 3 h [5, 7]: < 0.5 ng/mL | concentration at 3 h [5, 8]: 11.9 ± 2.51 ng/mL | concentration at 7 h [5, 7]: < 0.5 ng/mL | concentration at 7 h [5, 8]: < 0.5 ng/mL | concentration at 24 h [5, 7]: < 0.5 ng/mL | concentration at 24 h [5, 8]: < 0.5 ng/mL | concentration at 0.5 h ([5]; mouse, 0.1 mg/kg, Nf1+/− mice): 11 ± 1.73 ng/mL | concentration at 0.5 h ([5]; mouse, 1 mg/kg, Nf1+/− mice): 192 ± 35 ng/mL | concentration at 3 h ([5]; mouse, 0.1 mg/kg, Nf1+/− mice): < 0.5 ng/mL | concentration at 3 h ([5]; mouse, 1 mg/kg, Nf1+/− mice): 8.95 ± 0.5 ng/mL | concentration at 7 h ([5]; mouse, 0.1 mg/kg, Nf1+/− mice): < 0.5 ng/mL | concentration at 7 h ([5]; mouse, 1 mg/kg, Nf1+/− mice): < 0.5 ng/mL | concentration at 24 h ([5]; mouse, 0.1 mg/kg, Nf1+/− mice): < 0.5 ng/mL | concentration at 24 h ([5]; mouse, 1 mg/kg, Nf1+/− mice): < 0.5 ng/mL
